According to patent US20170292959A1, “PLASMIDS COMPRISING INTERNAL RIBOSOMAL ENTRY SITES AND USES THEREOF” (Dana-Farber Cancer Institute, Inc., priority 2014, published 2017):
Where a SMILES comes first, the peptide text is derived from it. The star is where a group is joined. Cbz = O=C(OCc1ccccc1)*

How the values were obtained:
[1] = system: endogenous IKZF3; test: Immunoblot of endogenous protein in myeloma cells; format: cell-based, human; details: MM1S and L363 cells; pretreated with MG132 or MLN4924
Description: (§1) Whole cell extracts were resolved by SDS-polyacrylamide gel electrophoresis, transferred onto a nitrocellulose membrane, and probed with the indicated primary antibodies. Bound antibodies were detected with horseradish peroxidase-conjugated secondary antibodies (Pierce) and enhanced chemiluminescence (ECL) western blotting detection regents (Pierce) or Immobilon western chemiluminescent horseradish peroxidase substrate (Millipore).
(§2) For cycloheximide assays, cells were pretreated with DMSO or LEN (2 μM) for 1 hour, and then 100 μg/ml cycloheximide (Sigma) was added into the DMEM growth medium.

[2] = system: IKZF1; test: Exogenous IKZF protein level in 293FT cells (Fluc/Rluc ratio, HA immunoblot); format: cell-based, human; details: 12 hours; for effect on down-regulation of exogenous IKZF1 by lenalidomide: with lenalidomide 2 μM, MLN4924 1 μM or MG132 10 μM
Experimental: To verify the change of Fluc/Rluc of ORFs obtained from the 384-well high-throughput screen, each clone was further tested in a 96 well format. […] On the day of transfection 96-well polypropylene plates (Greiner) were used to prepare the transfection mixture. First, a plasmid mixture containing 240 ng of ORF luciferase fusion clone and 480 ng of pcDNA3 was diluted into 120 μl of Opti-MEM reduced serum. Next 14.4 μL of Lipofectamine 2000 was diluted into 120 μl of Opti-MEM reduced serum. 5 minutes later, the plasmid solution was mixed with the diluted Lipofectamine 2000 using a multi-channel pipette. […] 24 hours after transfection, cells were treated with LEN (2 μM) or DMSO in quadruplicate. […] The ratio of FLuc/Rluc was calculated for each well. To determine the change of Fluc/Rluc for each ORF, the averaged Fluc/Rluc of LEN treated wells was divided by that of DMSO treated wells. A 2-tailed Student's t test was performed to determine the statistical significance. P value <0.05 was considered significant.
as §1

[3] = system: endogenous IKZF1; test: Immunoblot of endogenous protein in leukemia and myeloma cells; format: cell-based, human; details: U937, MM1S and L363 cells; pretreated with MG132 or MLN4924
Description: as §1, §2

[4] = system: IRF4; test: Immunoblot of endogenous protein in myeloma cells; format: cell-based, human; details: LEN 2 μM
Description: as §1

[5] = molecular target: IKZF2 with the reciprocal change (H141Q) (Homo sapiens, UniProt Q9UKS7, H141Q); details: reciprocal change in IKZF2
Description: (§3) Human IKZF4 cDNA clone was PCR amplified from ETS clone HsCD00295530 (PlasmID, DF/HCC DNA Resource Core), and then cloned into pDONR223 via BP gateway recombination. Human CRBN, human IKZF1 splicing variant 2 (IKZF1-V2), human IKZF2 splicing variant 2 (IKZF2-V2), human IKZF5 and human IRF4 in pDONR223 entry vectors were obtained from the human ORFeome Collection (DF/HCC DNA Resource Core). IKZF1 splicing variant 1 (IKZF1-V1) cDNA and human IKZF2 splicing variant 1 (IKZF2-V1) cDNA were generated by overlapping PCR and cloned into pDONR223 via BP gateway recombination. IKZF4, IKZF1-V1 and IKZF2-V1 were cloned into pIRIGF via LR gateway recombination. IKZF1/2 chimeras (IKZF12 H1, IKZF12 H2, IKZF12 H3, IKZF12 H4, IKZF21 H5, IKZF21 H6, IKZF21 H7, IKZF2 H8, IKZF121 and IKZF212), IKZF1-V2-Q146H, IKZF1-V2-H176P/L177F, IKZF2-V1-H141Q, IKZF2-V1-P171H/F172L, IKZF1-V1-Q146H, IKZF3-Q147H mutants were generated via overlapping PCR and cloned into pIRIGF via LR gateway recombination. IKZF1-V2, IKZF2-V2, IKZF3, IKZF4, IKZF5 and IRF4 were cloned into plenti-UBC-gate-3xHA-pGK-PUR via LR gateway recombination.

[6] = molecular target: IKZF1 Q146H (Homo sapiens, UniProt Q13422, Q146H); details: IKZF1 residue Q146 changed to histidine
Description: as §3

[7] = system: IRF4 mRNA; test: Real-time qPCR; format: cell-based, human; details: MM1S cells treated with lenalidomide
Experimental: Total RNA was extracted using Qiagen RNeasy Mini Kit with on-column DNase digestion. Total RNA was reverse transcribed into first-strand cDNA using AffinityScript QPCR cDNA Synthesis Kit (Agilent) with random primers. Real-time PCR was performed in duplicate using RT2 SYBR Green/ROX qPCR Master Mix (Qiagen) and the Mx3000P QPCR system (Stratagene). Values were averaged to calculate the expression level and normalized against the level of RPS18. PCR primers are as follows: […]

[8] = molecular target: T1, IRF4 (Homo sapiens, UniProt Q15306); test: Exogenous protein level in 293FT cells (Fluc/Rluc ratio, HA immunoblot); format: cell-based; details: lenalidomide 2 μM, 12 hours
T1 construct: expressed in transfected cells; host or cells: 293FT
Experimental: (§4) To verify the change of Fluc/Rluc of ORFs obtained from the 384-well high-throughput screen, each clone was further tested in a 96 well format. The day before transfection, 293FT cells were seeded into solid opaque 96-well plates (BD biosciences) with 20,000 cells in 100 μl of DMEM culture media per well. On the day of transfection 96-well polypropylene plates (Greiner) were used to prepare the transfection mixture. First, a plasmid mixture containing 240 ng of ORF luciferase fusion clone and 480 ng of pcDNA3 was diluted into 120 μl of Opti-MEM reduced serum. Next 14.4 μL of Lipofectamine 2000 was diluted into 120 μl of Opti-MEM reduced serum. 5 minutes later, the plasmid solution was mixed with the diluted Lipofectamine 2000 using a multi-channel pipette. After 30 minutes, 28 μl of DNA/lipofectamine mixture was added to each well of the 96 well plates seeded with 293FT cells (8 wells for each ORF). […] The ratio of FLuc/Rluc was calculated for each well. […]
as §1

[9] = system: IRF4; details: at least indirectly; cited from earlier work
[10] = molecular target: T2, C11orf65 (Homo sapiens, UniProt Q8NCR3); test: Exogenous protein level in 293FT cells (Fluc/Rluc ratio, HA tag); format: cell-based; details: lenalidomide
T2 construct: expressed in transfected cells; host or cells: 293FT
T2 sequence (Q8NCR3 1-313): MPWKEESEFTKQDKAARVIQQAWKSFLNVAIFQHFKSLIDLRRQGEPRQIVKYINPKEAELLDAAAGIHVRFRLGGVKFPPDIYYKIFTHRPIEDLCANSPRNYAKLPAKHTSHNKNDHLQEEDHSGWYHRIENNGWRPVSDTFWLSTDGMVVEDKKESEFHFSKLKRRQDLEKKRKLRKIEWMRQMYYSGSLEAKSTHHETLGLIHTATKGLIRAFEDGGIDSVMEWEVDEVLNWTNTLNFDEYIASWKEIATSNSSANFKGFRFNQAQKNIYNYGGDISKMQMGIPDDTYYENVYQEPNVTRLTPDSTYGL

[11] = molecular target: T3, IKZF5 (Homo sapiens, UniProt Q9H5V7); test: Exogenous IKZF protein level in 293FT cells (Fluc/Rluc ratio, HA immunoblot); format: cell-based; details: lenalidomide 2 μM, 12 hours
T3 construct: expressed in transfected cells; host or cells: 293FT
Experimental: as §4, §1

[12] = molecular target: T4, IKZF4 (Homo sapiens, UniProt Q9H2S9); test: as above; format: cell-based; details: lenalidomide 2 μM, 12 hours
T4 construct: expressed in transfected cells; host or cells: 293FT
Experimental: as §4, §1

[13] = system: myeloma; details: alone and in combination with lenalidomide; cited from earlier work
[14] = in vivo; cited from earlier work
[15] = molecular target: cereblon autoubiquitination activity (Homo sapiens, UniProt Q96SW2); details: cited from earlier work
[16] = molecular target: cereblon (Homo sapiens, UniProt Q96SW2); details: cited from earlier work
[17] = system: zebrafish; details: in vivo; cited from earlier work
[18] = system: proteasomal substrates; test: Pilot ORF-luciferase stabilization experiment in 293FT cells (Fluc/Rluc); format: cell-based, human; details: MG132 10 μM, 24 hours
Experimental: (§5) FIGS. 6A-6B depict the pharmacological stabilization of firefly luciferase fusion protein. 293FT cells were transiently transfected with plasmids encoding unfused Fluc (pIRIF) or the indicated ORF-firefly luciferase (Fluc) fusions and then treated for 24 hours with DMOG (1 μM), MG132 (10 μM), or vehicle (DMSO). HIF1α-dPA is a HIF1α variant lacking both prolyl hydroxylation sites (33). Shown for each plasmid are Fluc/Rluc values (FIG. 6A) and Fold change in Fluc/Rluc compared to DMSO treatment (FIG. 6B). Data are mean±SD, n=4.
(§6) In pilot experiments 293FT embryonic kidney cells grown in multiwell plates were transfected with the ORF-luciferase library (one ORF per well) and treated with the proteasome inhibitor MG132, the hydroxylase inhibitor dimethyloxalylglycine (DMOG), or vehicle. Fluc/Rluc values measured 36 to 48 hours later were stable over a wide range of input plasmid concentrations (FIG. 5).

[19] = system: HIF1α; test: as above; format: cell-based, human; details: DMOG 1 μM, 24 hours
Experimental: as §5, §6

[20] = molecular target: T5, IKZF3 (Homo sapiens, UniProt Q9UKT9); test: Exogenous IKZF protein level in 293FT cells (Fluc/Rluc ratio, HA immunoblot); format: cell-based; details: pomalidomide 0.2 μM, 12 hours
T5 construct: expressed in transfected cells; host or cells: 293FT
Experimental: To verify the change of Fluc/Rluc of ORFs obtained from the 384-well high-throughput screen, each clone was further tested in a 96 well format. […] On the day of transfection 96-well polypropylene plates (Greiner) were used to prepare the transfection mixture. First, a plasmid mixture containing 240 ng of ORF luciferase fusion clone and 480 ng of pcDNA3 was diluted into 120 μl of Opti-MEM reduced serum. Next 14.4 μL of Lipofectamine 2000 was diluted into 120 μl of Opti-MEM reduced serum. 5 minutes later, the plasmid solution was mixed with the diluted Lipofectamine 2000 using a multi-channel pipette. […] The ratio of FLuc/Rluc was calculated for each well. To determine the change of Fluc/Rluc for each ORF, the averaged Fluc/Rluc of LEN treated wells was divided by that of DMSO treated wells. A 2-tailed Student's t test was performed to determine the statistical significance. P value <0.05 was considered significant.
as §1

**Q.** With NS(=O)(=O)OC[C@@H]1C[C@@H](n2ccc3c(N[C@H]4CCc5ccccc54)ncnc32)C[C@@H]1O [MLN4924] as the compound, how does the “effect of pretreatment on lenalidomide down-regulation of endogenous IKZF3” value [1] read?
**A.** The value was “unless the cells were pretreated”.

**Q.** What about the “effect on down-regulation of exogenous IKZF1 by lenalidomide” value [2] of the same compound?
**A.** Its value is “blocked”.

**Q.** What about the “effect of pretreatment on lenalidomide down-regulation of endogenous IKZF1” value [3] of the same compound?
**A.** Its value is “unless the cells were pretreated”.

**Q.** Which “IRF4 level (immunoblot, time course)” value ([4]; KMS34 cells, following loss of IKZF1 and IKZF3) does the source give for Nc1cccc2c1CN(C1CCC(=O)NC1=O)C2=O (stereo not drawn) [lenalidomide] here?
**A.** The value was “decrease”.

**Q.** What about the “IRF4 level (immunoblot, time course)” value ([4]; L363 cells, high basal IRF4) of the same compound?
**A.** Its value is “unaffected”.

**Q.** And the “IRF4 level (immunoblot, time course)” value ([4]; MM1S cells, following loss of IKZF1 and IKZF3)?
**A.** The value was “decrease”.

**Q.** What about the IRF4 level ([4]; three resistant lines (KMS11, RPMI8226, OCImy5)) of the same compound?
**A.** The IRF4 level was “not down-regulated”.

**Q.** And the “sensitivity of IKZF2 mutant to lenalidomide” value [5]?
**A.** Its value is “partially sensitive”.

**Q.** What about the “cereblon binding and lenalidomide-induced degradation” value [6] of the same compound?
**A.** Its value is “abrogated”.

**Q.** What about the “IRF4 mRNA” value [7] of the same compound?
**A.** The value was “Decreased”.

**Q.** And the “level of exogenous IRF4” value [8]?
**A.** The value was “did not affect”.

**Q.** And the “IRF4 level, previous studies” value [9]?
**A.** The value was “down-regulates”.

**Q.** What about the “level of C11orf65 fused to HA epitope tag instead of Fluc” value [10] of the same compound?
**A.** The value was “unaffected”.

**Q.** And the “level of exogenous IKZF5” value [11]?
**A.** The value was “did not affect”.

**Q.** And the “level of exogenous IKZF4” value [12]?
**A.** Its value is “did not affect”.

**Q.** Which antimyeloma activity [13] does the source give for CC(C)C[C@H](NC(=O)[C@H](Cc1ccccc1)NC(=O)c1cnccn1)B(O)O [bortezomib] here?
**A.** Its antimyeloma activity is “has antimyeloma activity”.

**Q.** Which results are given for O=C1CCC(N2C(=O)c3ccccc3C2=O)C(=O)N1 (stereo not drawn) [thalidomide]?
**A.** teratogenicity [14]: teratogenicity, manifest as profound limb defects; effect on cereblon autoubiquitination activity [15]: inhibit; binding to cereblon [16]: bind; effect of treatment of zebrafish [17]: caused fin defects

**Q.** Which “effect of pretreatment on lenalidomide down-regulation of endogenous IKZF3” value [1] does the source give for CC(C)C[C@@H](C=O)NC(=O)[C@H](CC(C)C)NC(=O)[C@H](CC(C)C)NC(=O)OCc1ccccc1 [MG132] (Cbz-Leu-Leu-Leu-aldehyde) here?
**A.** The value was “unless the cells were pretreated”.

**Q.** What about the “effect on down-regulation of exogenous IKZF1 by lenalidomide” value [2] of the same compound?
**A.** The value was “blocked”.

**Q.** What about the “stabilization of ORF-Fluc fusions (Fluc/Rluc)” value [18] of the same compound?
**A.** Its value is “stabilized many proteasomal substrates”.

**Q.** What about the “effect of pretreatment on lenalidomide down-regulation of endogenous IKZF1” value [3] of the same compound?
**A.** The value was “unless the cells were pretreated”.

**Q.** For COC(=O)CNC(=O)C(=O)OC [DMOG, dimethyloxalylglycine], which “stabilization of HIF1α-Fluc fusion (Fluc/Rluc)” value [19] is on record?
**A.** Its value is “stabilized”.

**Q.** Which results are given for Nc1cccc2c1C(=O)N(C1CCC(=O)NC1=O)C2=O (stereo not drawn) [pomalidomide]?
**A.** level of IKZF3 fused to Fluc or HA [20]: downregulation; level of IKZF1 fused to Fluc or HA ([2]; pomalidomide 0.2 μM): downregulation
